{
  "source": "patent US4152440A",
  "about": "“Novel derivatives of imidazole, and pharmaceutical compositions containing them” (Hoechst Aktiengesellschaft, priority 1975, dated 1979)",
  "key": {"Oxonat rat [1]": {"test_system": "Oxonat rat", "test": "Combined metabolic test in the Oxonat rat (Test 2 of Table 2): uric acid in urine and serum", "assay_type": "in vivo, male Wistar rats", "conditions": "for Separation of uric acid in the urine, 1st day: 1st day (urine collected before administration, control value); for Serum - uric acid, % of control / Serum - uric acid / Separation of uric acid in the urine, 3rd day: 3rd day", "procedure": "(§1) In this test series, the uricase activity of the rats' livers is inhibited by the application of potassium oxonate (potassium salt of 2,4-dihydroxy-1,3,5-triazine-(6)-carboxylic acid) and thus a gout-like disorder of the purine metabolism is induced. The animals are tested in two different ways.\n(§2) 18 hours before the start of the test, the animals were placed separately in metabolism cages. At the same time they were offered unlimited quantities of a 0.5% potassium oxonate solution to drink. On the 1st day of the test, first the urine samples collected were removed (control value) then the substances to be tested were administered in a 0.5% potassium oxonate solution by oesophageal tube into the stomach. The same operation was repeated on the 2nd day of the test. After removal of the 24 hour urine (1st sample after administration of the preparation) the test substances were administered a second time by oesophageal tube. On the 3rd day of the test, the animals were killed and bled, immediately after the urine samples from the preceding 24 hours had been collected (2nd sample after administration of the preparation). Both in the serum obtained and also in the urine samples, the concentration of uric acid was determined enzymatically, using the uricase method (Uricaquant, Boehringer Mannheim), together with a large number of metabolic parameters.\nThis test series differs from the diuresis test described in 1) only in the method of administration of the uricase inhibitor. The animals drink water throughout the test and are given the potassium oxonate in a special feed mixture consisting of normal standard rat food to which 5% fructose, 3% uric acid, 2% potassium oxonate and 0.1% sweetener have been added. The administration of the preparations to be tested and the analysis of the urine samples from the 1st, 2nd and 3rd days of the test and of the serum samples obtained on the 3rd day of the test were carried out as described in the diuresis test."}, "[2]": {"test": "Acute toxicity (LD50), oral by oesophageal tube", "conditions": "rat, in vivo, rats, mortality within 7 days"}, "Oxonat rat [3]": {"test_system": "Oxonat rat", "test": "Diuresis test in the Oxonat rat (Test 1 of Table 2): uric acid in urine and serum", "assay_type": "in vivo, male Wistar rats", "conditions": "25 mg/kg oral, n=8, diuresis test (Test 1)", "procedure": "The compounds may therefore be useful as therapeutic agents for various disorders of purine metabolism, particularly in treating primary and secondary gout.\nas §1, §2"}, "[4]": {"conditions": "25 mg/kg oral, n=8, combined metabolic test (Test 2)"}, "[5]": {"conditions": "25 mg/kg oral, n=8, combined metabolic test (Test 2), * p<0.05 (Duncan), control 8.64± 3.51"}, "[6]": {"conditions": "50 mg/kg oral, n=8, comparison preparation, own control group (Test 2)"}},
  "data": [
    {"smiles": "CC(C)n1ccnc1Cc1nn[nH]n1", "note": "[Example 3, 1-Isopropyl-2-(5-tetrazolymethyl)-imidazole]", "values": [
      {"measurement": "Separation of uric acid in the urine, 1st day", "setting": "Oxonat rat [1]; [4]", "result": "1.68± 0.51"},
      {"measurement": "Separation of uric acid in the urine, 2nd day", "setting": "Oxonat rat [1]; [4]", "result": "2.25± 0.41"},
      {"measurement": "Serum - uric acid, % of control", "setting": "Oxonat rat [1]; [4]", "result": -19, "unit": "%"},
      {"measurement": "Serum - uric acid", "setting": "Oxonat rat [1]; [5]", "result": "6.97± 2.07", "unit": "mg %"}
    ]},
    {"smiles": "Oc1ncnc2[nH]ncc12", "note": "[Allopurinol, 1 H-Pyrazolo[3,4-]pyrimidine-4-ol, reference compound]", "values": [
      {"measurement": "Serum - uric acid", "setting": "Oxonat rat [1]; 50 mg/kg oral, n=8, comparison preparation (Test 2), own control 6.70± 0.89", "result": "6.21± 0.76", "unit": "mg %"},
      {"measurement": "Separation of uric acid in the urine, 1st day", "setting": "Oxonat rat [1]; [6]", "result": "0.99± 0.51"},
      {"measurement": "Separation of uric acid in the urine, 2nd day", "setting": "Oxonat rat [1]; [6]", "result": "2.16± 0.81"},
      {"measurement": "Separation of uric acid in the urine, 3rd day", "setting": "Oxonat rat [1]; [6]", "result": "3.82± 1.59"}
    ]},
    {"smiles": "Cc1ccccc1-n1ccnc1Cc1nnn[nH]1", "note": "[Example 11, 1-(o-Tolyl)-2-(5-tetrazolylmethyl)-imidazole]", "values": [
      {"measurement": "Separation of uric acid in the urine, 1st day", "setting": "Oxonat rat [1]; [4]", "result": "1.12± 0.64"},
      {"measurement": "Separation of uric acid in the urine, 2nd day", "setting": "Oxonat rat [1]; [4]", "result": "2.24± 0.57"},
      {"measurement": "Separation of uric acid in the urine, 3rd day", "setting": "Oxonat rat [1]; [4]", "result": "2.33± 1.70"},
      {"measurement": "Serum - uric acid, % of control", "setting": "Oxonat rat [1]; [4]", "result": -31, "unit": "%"},
      {"measurement": "Serum - uric acid", "setting": "Oxonat rat [1]; [5]", "result": "6.00± 1.73", "unit": "mg %"}
    ]},
    {"smiles": "c1ccc(Cn2ccnc2-c2nnn[nH]2)cc1", "note": "[Example 24, 1-Benzyl-2-(5-tetrazolyl)-imidazole]", "values": [
      {"measurement": "LD50 at 168 h", "setting": "[2]", "result": "> 4000", "unit": "mg/kg"},
      {"measurement": "Separation of uric acid in the urine, 1st day", "setting": "Oxonat rat [1]; [4]", "result": "1.81± 0.61"},
      {"measurement": "Separation of uric acid in the urine, 2nd day", "setting": "Oxonat rat [1]; [4]", "result": "2.04± 0.80"},
      {"measurement": "Separation of uric acid in the urine, 3rd day", "setting": "Oxonat rat [1]; [4]", "result": "2.51± 1.55"},
      {"measurement": "Serum - uric acid, % of control", "setting": "Oxonat rat [1]; [4]", "result": -30, "unit": "%"},
      {"measurement": "Serum - uric acid", "setting": "Oxonat rat [1]; [5]", "result": "6.07± 1.63", "unit": "mg %"},
      {"measurement": "Separation of uric acid in the urine, 1st day", "setting": "Oxonat rat [3]; 1st day (urine collected before administration, control value)", "result": "2.56± 1.14"},
      {"measurement": "Separation of uric acid in the urine, 2nd day", "setting": "Oxonat rat [3]; 2nd day", "result": "3.97± 1.44"},
      {"measurement": "Separation of uric acid in the urine, 3rd day", "setting": "Oxonat rat [3]; 3rd day", "result": "3.47± 1.31"},
      {"measurement": "Serum - uric acid, % of control", "setting": "Oxonat rat [3]; 3rd day", "result": -31, "unit": "%"},
      {"measurement": "Serum - uric acid", "setting": "Oxonat rat [3]; 3rd day, * p<0.05 (Duncan), control 3.50± 1.15", "result": "2.41± 0.98", "unit": "mg %"}
    ]},
    {"smiles": "c1ccc(Cn2ccnc2Cc2nn[nH]n2)cc1", "note": "[Example 5, 1-benzyl-2-(5-tetrazolymethyl)-imidazole]", "values": [
      {"measurement": "Separation of uric acid in the urine, 1st day", "setting": "Oxonat rat [1]; [4]", "result": "1.78± 0.92"},
      {"measurement": "Separation of uric acid in the urine, 2nd day", "setting": "Oxonat rat [1]; [4]", "result": "2.76± 1.21"},
      {"measurement": "Separation of uric acid in the urine, 3rd day", "setting": "Oxonat rat [1]; [4]", "result": "2.28± 1.31"},
      {"measurement": "Serum - uric acid, % of control", "setting": "Oxonat rat [1]; [4]", "result": -30, "unit": "%"},
      {"measurement": "Serum - uric acid", "setting": "Oxonat rat [1]; [5]", "result": "6.05± 1.96", "unit": "mg %"}
    ]},
    {"smiles": "Cn1ccnc1Cc1nnn[nH]1", "note": "[Example 1, 1-Methyl-2-(5-tetrazolylmethyl)-imidazole]", "values": [
      {"measurement": "LD50 at 168 h", "setting": "[2]", "result": "> 3150", "unit": "mg/kg"},
      {"measurement": "Separation of uric acid in the urine, 2nd day", "setting": "Oxonat rat [1]; [4]", "result": "3.30± 2.12"},
      {"measurement": "Separation of uric acid in the urine, 3rd day", "setting": "Oxonat rat [1]; [4]", "result": "3.32± 1.94"},
      {"measurement": "Serum - uric acid, % of control", "setting": "Oxonat rat [1]; [4]", "result": -44, "unit": "%"},
      {"measurement": "Serum - uric acid", "setting": "Oxonat rat [1]; [5]", "result": "4.83± 1.69", "unit": "mg %"}
    ]}
  ]
}
